Measurements reported in PubChem BioAssay (NCI).
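Following 48 hours of exposure in 96-well plates, responses at five concentrations were used to interpolate endpoints linearly. Here, GI50 denotes the concentration required for 50% inhibition of growth. TGI marks complete inhibition of growth.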

Columns and labels:
Test in all cases: NCI-60 cell line screen, 48 h
[1] = system: SN12C renal
[2] = system: COLO 205 colon
[3] = system: NCI-H522 lung
[4] = system: HOP-62 NSCLC
[5] = system: 786-0 renal
[6] = system: NCI-H23 lung
[7] = system: SW-620 colon
[8] = system: BT-549 breast
[9] = system: PC-3 prostate
[10] = system: MDA-MB-231 breast

SMILES | TGI [1] [µM] | TGI [2] [µM] | TGI [3] [µM] | TGI [4] [µM] | TGI [5] [µM] | TGI [6] [µM] | TGI [7] [µM] | GI50 [1] [µM] | GI50 [2] [µM] | GI50 [3] [µM] | GI50 [8] [µM] | TGI [8] [µM] | GI50 [4] [µM] | GI50 [9] [µM] | TGI [9] [µM] | GI50 [5] [µM] | GI50 [6] [µM] | GI50 [7] [µM] | TGI [10] [µM] | GI50 [10] [µM]
CC(C(=O)c1ccc(Cl)cc1)C1OC(=O)C(Cl)=C1Cl (stereo not given) | 56.3 | 51 | 37.7 | > 100 | 36 | 71.1 | > 100 | – | – | – | – | – | – | – | – | – | – | – | – | –
O=C1c2ccn(CCCCN3CCCCC3)c2C(=O)c2c1c(O)c1ccccc1c2O | 45 | > 52.2 | 56 | 35.4 | – | > 48.3 | 10.6 | 16.5 | 5.8 | 11.1 | 17.7 | 38.3 | 13.4 | 4.76 | 18.1 | 5.28 | 23.1 | 3.18 | – | –
NCCP(=O)(O)O | > 100 | > 100 | > 100 | > 100 | > 100 | > 100 | > 100 | – | – | – | – | > 100 | – | – | > 100 | – | – | – | > 100 | –
CC(CN1CCN(CC(C)Nc2ccnc3cc(Cl)ccc23)CC1)Nc1ccnc2cc(Cl)ccc12 (stereo not given) | > 71.6 | 31.8 | 21.3 | > 63 | 33.8 | > 57 | > 100 | – | – | – | – | – | – | 3.04 | 57.2 | – | – | 2.82 | 7.52 | 2.72
CC(O)(CNS(=O)(=O)c1ccccc1)c1ccccc1 (stereo not given) | > 100 | > 100 | > 100 | > 100 | > 100 | > 100 | > 100 | – | – | – | – | > 100 | – | – | > 100 | – | – | – | > 100 | –
COc1cc(C2=NN(c3ccc(S(N)(=O)=O)cc3)C(c3ccc(Cl)cc3)C2)cc(OC)c1OC (stereo not given) | > 100 | 12.2 | > 100 | > 100 | > 100 | > 100 | > 100 | 6.67 | 3.52 | 3.03 | 3.8 | 46.4 | 5.8 | 3.05 | > 100 | 6.43 | 5.72 | 4.49 | > 100 | 3.95
COc1cc(-c2cc(/C=C3\C(=O)Nc4ccccc43)[nH]n2)cc(OC)c1OC | 14.5 | 7.02 | 6.3 | 14.9 | 20.2 | 8.95 | 18.9 | 3.58 | 2.47 | 1.99 | 2.1 | 6.58 | 3.2 | 2.14 | 10 | 5.1 | 2.78 | 3.33 | 27.7 | 4.07
CCc1c(O)c2c(c(O)c1C(C)=O)C(=O)c1c(cc(O)c(C(=O)O)c1C(=O)O)C2=O | > 100 | > 100 | > 100 | > 100 | > 100 | > 100 | > 100 | – | – | – | – | > 100 | – | – | > 100 | – | – | – | > 100 | –
O=C(O)c1cscc1Cc1cccs1 | > 100 | > 100 | > 100 | > 100 | > 100 | > 100 | > 100 | – | – | – | – | > 100 | – | – | > 100 | – | – | – | > 100 | –
C[C@@H](Oc1ccc2[nH]nc(/C=C/c3cnn(CCO)c3)c2c1)c1c(Cl)cncc1Cl | > 100 | 0.306 | 2.49 | 3.06 | 2.38 | 2.18 | > 100 | 0.121 | 0.107 | 0.572 | 0.142 | 0.75 | 0.108 | 1.41 | 7.4 | 0.253 | 0.0796 | 0.0574 | > 26.5 | 0.357
CC1CCP(=O)(c2ccccc2)CC1 (stereo not given) | > 100 | > 100 | – | > 100 | > 100 | > 100 | > 100 | – | – | – | – | – | – | – | – | – | – | – | – | –
CCc1cccc(C(C)CC)c1NC(=O)C(=O)C(CC(=O)Nc1ccc(Cl)c(Cl)c1)C(=O)OC (stereo not given) | > 100 | > 100 | > 100 | > 100 | > 100 | > 100 | > 100 | – | – | – | – | – | – | – | – | – | – | – | – | –
CCCCN(CCCC)C(=O)C(=O)C(C)C(=O)CC (stereo not given) | > 100 | > 100 | > 100 | > 100 | > 100 | > 100 | > 100 | – | – | – | – | – | – | – | – | – | – | – | – | –
Cn1c2ccccc2c(=O)c2c([N+](=O)[O-])ccc(NCCN)c21 | 17.2 | 19.3 | 20.5 | 30.7 | 20.6 | 23.6 | 16.6 | – | – | – | – | – | – | – | – | – | – | – | – | –
COC(=O)OCc1ccc2c(c1)C(=O)c1c-2n(CCCBr)c(=O)c2cc([N+](=O)[O-])ccc12 | > 100 | > 100 | > 100 | > 100 | 92 | – | > 100 | > 100 | > 100 | > 100 | 44.9 | > 100 | 27.7 | > 100 | > 100 | 31.7 | – | > 100 | > 100 | 52.7
O=[N+]([O-])c1ccc(/C=C(/c2ccc([N+](=O)[O-])o2)S(=O)(=O)c2ccccc2)o1 | – | 4.67 | 4.21 | 38.3 | 14.7 | 38 | 5.55 | – | – | – | – | 36.2 | – | – | 30.1 | – | – | – | 16.3 | –
N#C/C(N)=C(\C#N)N=Cc1csc2ccccc12 | > 100 | > 100 | > 100 | 34.6 | > 100 | 51.2 | > 100 | 26.9 | 72.3 | 28.9 | – | – | 15 | 47.3 | > 100 | 34.2 | 11.5 | > 100 | 41 | 15.2
c1cc[c]([Sn]([S]c2cccc3cccnc23)([S]c2cccc3cccnc23)[c]2ccccc2)cc1 | 0.954 | 0.298 | – | 1.75 | 0.502 | 0.46 | 0.365 | 0.284 | 0.136 | – | – | – | 0.411 | – | – | 0.212 | 0.198 | 0.14 | – | –
